# The source made the active and inactive calls. The rule behind the calls is not given here.
# How the values were obtained:
# Danio rerio [1] = species: Danio rerio; assay: Toxicity in 7-days post fertilized zebra fish larvae after 1.5 to 24 hrs by microscopic analysis; assay type: organism-based; details: zebrafish, in vivo
# Danio rerio [2] = species: Danio rerio; assay: Anticonvulsant activity in 7-days post fertilized zebra fish larvae assessed as reduction in pentylenetetrazol-induced locomotor activity by measuring total distance traveled by larvae at 1.5 to 6 uM pretreated for 3 hrs followed by pentylenetetrazol addition measured at 5 mins interval 30 mins; assay type: functional, organism-based
# Danio rerio [3] = species: Danio rerio; assay: Anticonvulsant activity in 7-days post fertilized zebra fish larvae assessed as reduction in pentylenetetrazol-induced locomotor activity by measuring total distance traveled by larvae pretreated for 3 hrs followed by pentylenetetrazol addition measured at 5 mins interval 30 mins; assay type: functional, organism-based
# Danio rerio [4] = species: Danio rerio; assay: Anticonvulsant activity in 7-days post fertilized zebra fish larvae assessed as reduction in pentylenetetrazol-induced locomotor activity by measuring total distance traveled by larvae at 0.25 to 2 uM pretreated for 3 hrs followed by pentylenetetrazol addition measured at 5 mins interval 30 mins; assay type: functional, organism-based
# Danio rerio [5] = species: Danio rerio; assay: Anticonvulsant activity in 7-days post fertilized zebra fish larvae assessed as reduction in pentylenetetrazol-induced locomotor activity by measuring total distance traveled by larvae at 1.25 to 10 uM pretreated for 3 hrs followed by pentylenetetrazol addition measured at 5 mins interval 30 mins; assay type: functional, organism-based
SMILES,MTD (Danio rerio [1]) [µM],Activity (Danio rerio [2]),Activity (Danio rerio [3]),Activity (Danio rerio [4]),Activity (Danio rerio [5])
CC(C)c1ccc2c(c1)CC[C@H]1[C@](C)(C(=O)O)CCC[C@]21C [DEHYDROABIETIC ACID],6,Active,–,–,–
CN1C(=O)CN=C(c2ccccc2)c2cc(Cl)ccc21 [DIAZEPAM],20,–,Dose-dependent effect,–,–
C=CCc1ccc(O)c(-c2cc(CC=C)ccc2O)c1 [MAGNOLOL],4,–,Dose-dependent effect,–,–
O=C(/C=C/C=C/c1ccc2c(c1)OCO2)N1CCCCC1 [PIPERINE],12,–,Dose-dependent effect,–,–
C=C[C@]1(C)C=C2CC[C@@H]3[C@](C)(CCC[C@@]3(C)C(=O)O)[C@H]2CC1 [SANDARACOPIMARIC ACID],2,–,–,Active,–
CC(C)=CC[C@]12Oc3cc(O)c([C@H]4C=C(C)C[C@H](c5ccc(O)cc5O)[C@H]4C(=O)c4ccc(O)cc4O)c(O)c3C(=O)[C@@]1(O)Oc1cc(O)ccc12 [SANGGENON C],2,–,–,inactive,–
C=C(C)[C@H](CC=C(C)C)Cc1c(O)cc(O)c2c1O[C@H](c1ccc(O)cc1O)CC2=O [SOPHORAFLAVANONE G],10,–,–,–,Active
CC1=C2[C@H](/C=C(\C)C(=O)O)CC[C@@H](C)[C@H]2CC1 [VALERENIC ACID],10,–,Dose-dependent effect,–,–

# From ChEMBL document CHEMBL4118049, “HPLC-Based Activity Profiling for GABAA Receptor Modulators in Extracts: Validation of an Approach Utilizing a Larval Zebrafish Locomotor Assay” (J Nat Prod, 2017)
